Test results: article PMC4160570, “Effects of proarrhythmic drugs on relaxation time and beating pattern in rat engineered heart tissue” (Basic Research in Cardiology, 2014)
pIC50: −log10 of the molar value. Where two headings read alike, the source gives them in different places.

Assays:
[1] = tested on: rat engineered heart tissue (EHT); conditions: cited from earlier work
[2] = tested on: rat engineered heart tissue (EHT); experiment: Ca^2+ transients (Fura-2) and contraction of EHTs under electrical stimulation and perfusion; type: cell-based; conditions: for effect on relaxation time T2 under electrical stimulation / effect on intracellular Ca^2+ transients (duration): 2 Hz, 4AP 10 mM, epinephrine 50 nM; for effect on intracellular Ca^2+ transients (duration): in absence and presence of 4AP; for reversibility of effects: after washout; for time course of effects under continuous electrical stimulation and perfusion: quinidine 100 µM, erythromycin 1 mM
Method: Intracellular Ca^2+-transients were analyzed in parallel with force under electrical stimulation and continuous perfusion using a novel setup as described previously. The setup consisted of an inverted microscope, a temperature- and O2/CO2-controlled chamber for the 24-well EHT plate, a flow rate-controlled perfusion system, platinum–iridium wire electrodes for field stimulation, a fluorescence light source (IonOptix Hyperswitch), a photomultiplier, video cameras and software (both IonOptix) for the evaluation of contractile activity (edge detection mode). Experiments were done at 4 ml flow/min (per well) and 2–4 Hz stimulation in modified Tyrode’s solution.
For Fura loading, EHTs were incubated in Tyrode’s solution containing 10 µM Fura2-AM (Invitrogen F1221) and Cremophor EL ([…]; Sigma C5135) for 2 h at 37 °C. The ratio of light emission (510 nm) at excitation with 340 and 380 nm light (F340/380 ratio) was used as an index of cytosolic Ca^2+-concentration.
To differentiate between effects on beating rate and relaxation and to analyse intracellular Ca^2+-transients in addition to force, two drugs were additionally analysed under pacing at defined beating rate using a novel modified IonOptix (IonOptix Corporation, Milton, MA, USA) setup. This custom-made setup allowed continuous electrical stimulation and perfusion of EHTs during the measurement. The setup consisted of an inverted microscope, a temperature- and O2/CO2-controlled chamber for the 24-well EHT plate mounted on the microscope stage, a flow rate-controlled perfusion system, platinum wire electrodes for field stimulation and a video camera and software (both IonOptix) for the evaluation of contractile activity (edge detection mode). Experiments were done under a flow rate of approximately 4 ml/min (per well) and stimulation at 2-4 Hz and 7 V. Measurements were done in a modified Tyrode’s solution (mM: NaCl 120, KCl 5.4, MgCl2 1.0, CaCl2 1.8, NaH2PO4 0.4, NaHCO3 22.6, glucose 5.0, Na2EDTA 0.05, ascorbic acid 0.3). EHTs were equilibrated for 20 min in Tyrode’s solution (baseline) and then exposed to the respective drug for up to 20 min. Reversibility of drug effects was determined after 20 min perfusion in drug-free Tyrode’s solution.
For measurement of intracellular Ca^2+-transients, EHTs were incubated in Tyrode’s solution containing 10 µM Fura2-AM (Invitrogen F1221) and the non-ionic detergent Cremophor EL (0.0075%; Sigma C5135) for 2 h at 37 °C. After washing the EHTs for 10 min in Tyrode’s solution, measurements under perfusion and stimulation of Ca^2+-transients were performed in the same way as for force of contraction, but signals were evaluated by a 10x objective (instead of 1.25x for force) and a photomultiplier.The ratio of the emission intensity of light (510 nm) from EHTs alternatively excited at 340 and 380 nm (F340/380 ratio) was used as an index of cytosolic Ca^2+-concentration. Data were evaluated either with the IonOptix software or a customized software or manually when peaks were severely deformed.

Ito = tested on: Ito; set-up: method as in PMID 17446473; conditions: adult rat ventricular myocytes; cited from earlier work
[3] = tested on: rat engineered heart tissue (EHT); experiment: Action potentials recorded with intracellular microelectrodes in intact, field-stimulated EHTs; type: cell-based
Method: Action potentials (APs) were recorded with standard intracellular microelectrodes in intact EHTs. […]. Preparations were field-stimulated for at least 1 h (2 Hz) before data acquisition. APs were analyzed off-line using the LabChart® software (ADInstruments, Spechbach, Germany).

[4] = tested on: rat engineered heart tissue (EHT); experiment: Video-optical analysis of contractile parameters of spontaneously beating rat EHTs (50 nM epinephrine); conditions: for significant T2 prolongation (p<0.05 and at least 15 % vs baseline): 1-, 10-, 100-fold FTPC, 50 nM epinephrine, n = 4–8; for irregular beating as the primary effect: sinusoidal fluctuation of twitch amplitudes, time dependent; for effect on contraction time T1 (group 3): 1–100× FTPC
[5] = tested on: rat engineered heart tissue (EHT)
rat = conditions: in vivo; cited from earlier work
mouse = conditions: in vivo; cited from earlier work
IKr = conditions: read-out: IC50 (IKr blocker); cited from earlier work

CCS(=O)(=O)N(C)[C@H]1c2cc(C#N)ccc2OC(C)(C)[C@@H]1O (racemic) [chromanol 293b]
effect on relaxation time T2 in a previous EHT study [1]: caused concentration-dependent prolongations of relaxation time T2 | prolongation of relaxation (T2) ([1]; seen previously in EHTs): +710%

Nc1ccncc1 [4-aminopyridine (4AP), 4-aminopyridine]
effect on relaxation time T2 under electrical stimulation [2]: increased T2 | effect on intracellular Ca^2+ transients (duration) [2]: prolonged intracellular Ca^2+ transients | pIC50 (Ito): 3.01 | action potential duration (APD90) ([3]; 4AP 10 mM, 2 Hz, increased from a mean of 113 ms (vehicle control)): 175 ms | concentration starting to prolong T2 relative to IC50 in adult rat cardiac myocytes ([4]; 3 mM): 3 fold IC50 | effect on beating pattern ([4]; 4AP 10 mM): induced beat-to-beat irregularities, variations of twitch amplitude and aftercontractions | prolongation of relaxation (T2) ([4]; 4AP 30 mM, cumulative, 45 min per concentration): +502% | concentration at which T2 prolongation reaches significance ([4]; cumulative concentrations, 45 min each): 3 mM

c1ccc(C2(c3ccccc3)CC2C2=NCCN2)cc1 (centres unmarked) [Cibenzoline]
published IKs IC50 relative to threshold for group 1 or 2 effects [5]: at or below the threshold for group 1 or 2 effects | significant T2 prolongation (p<0.05 and at least 15 % vs baseline) ([5]; Wistar, rat): Significant T2 prolongations

CC[C@H]1OC(=O)[C@H](C)[C@@H](O[C@H]2C[C@@](C)(OC)[C@@H](O)[C@H](C)O2)[C@H](C)[C@@H](O[C@@H]2O[C@H](C)C[C@H](N(C)C)[C@H]2O)[C@](C)(OC)C[C@@H](C)C(=O)[C@H](C)[C@@H](O)[C@]1(C)O [Clarithromycin]
LD50 (rat): 1.270 mg∙kg^-1 (rat, p. o.) 850 mg∙kg^-1 (mouse, i. p.) | LD50 (mouse): 1.270 mg∙kg^-1 (rat, p. o.) 850 mg∙kg^-1 (mouse, i. p.) | published IC50 values for hERG and Ito relative to threshold for T2 prolongation or irregularity [4]: at or below the threshold for T2 prolongation or irregularity | significant T2 prolongation (p<0.05 and at least 15 % vs baseline) [4]: Significant T2 prolongations

CNCCCN1c2ccccc2CCc2ccccc21 [Desipramine]
LD50 (mouse): 740 mg∙kg^-1 (mouse, p. o.) | significant T2 prolongation (p<0.05 and at least 15 % vs baseline) [4]: Significant T2 prolongations | irregular beating as the primary effect [4]: induced irregular beating

COc1ccc([C@@H]2Sc3ccccc3N(CCN(C)C)C(=O)[C@@H]2OC(C)=O)cc1 [Diltiazem]
negative inotropic effect [5]: lack of significant negative inotropic effects | T2-effective concentrations ([5]; Wistar, rat): 100 fold FTPC | significant T2 prolongation (p<0.05 and at least 15 % vs baseline) ([5]; Wistar, rat): Significant T2 prolongations

Cc1cccc(CCN2CCC(C(=O)c3ccc(NS(C)(=O)=O)cc3)CC2)n1 [E-4031]
pIC50 (IKr): […] | effect on T2 at 100-fold IC50 concentrations [4]: […] | effect on T2, drug alone ([4]; 1–1,000 nM, even at high concentrations (1,000 nM)): Neither E-4031 nor HMR-1556 affected T2 | concentration response curve (T2) in the presence of 4AP ([4]; 4AP 3 mM): […]

CC[C@H]1OC(=O)[C@H](C)[C@@H](O[C@H]2C[C@@](C)(OC)[C@@H](O)[C@H](C)O2)[C@H](C)[C@@H](O[C@@H]2O[C@H](C)C[C@H](N(C)C)[C@H]2O)[C@](C)(O)C[C@@H](C)C(=O)[C@H](C)[C@@H](O)[C@]1(C)O [Erythromycin]
LD50 (rat): 4.600 mg∙kg^-1 (rat, p. o.) 2.580 mg∙kg^-1 (mouse, p. o.) | reversibility of effects [2]: fully reversible after washout | time course of effects under continuous electrical stimulation and perfusion [2]: first prolonged T2, reduced force and then induced an autonomous chaotic contraction pattern | effect on relaxation time T2 in a previous EHT study [1]: caused concentration-dependent prolongations of relaxation time T2 | LD50 (mouse): 4.600 mg∙kg^-1 (rat, p. o.) 2.580 mg∙kg^-1 (mouse, p. o.) | significant T2 prolongation (p<0.05 and at least 15 % vs baseline) [4]: Significant T2 prolongations | irregular beating as the primary effect [4]: induced irregular beating

O=C(CCCN1CCC(O)(c2ccc(Cl)cc2)CC1)c1ccc(F)cc1 [Haloperidol]
LD50 (rat): 128 mg∙kg^-1 (rat, p. o.) 30 mg∙kg^-1 (mouse, i. p.) | LD50 (mouse): 128 mg∙kg^-1 (rat, p. o.) 30 mg∙kg^-1 (mouse, i. p.) | effect on contraction time T1 (group 3) [4]: prolongation of contraction time T1

CC(=O)N1CCN(c2ccc(OCC3COC(Cn4ccnc4)(c4ccc(Cl)cc4Cl)O3)cc2)CC1 (centres unmarked) [Ketoconazole]
LD50 (rat): 166 mg∙kg^-1 (rat, p. o.) | significant T2 prolongation (p<0.05 and at least 15 % vs baseline) ([5]; Wistar, rat): Significant T2 prolongations

O=C1NC(=O)C(c2ccccc2)(c2ccccc2)N1 [Phenytoin]
LD50 (rat): 1.635 mg∙kg^-1 (rat, p. o.) 100 mg∙kg^-1 (mouse, i. p.) | LD50 (mouse): 1.635 mg∙kg^-1 (rat, p. o.) 100 mg∙kg^-1 (mouse, i. p.) | EHT-effective concentrations relative to hERG IC50 [4]: relaxation slowing occurred at concentrations below hERG IC50 | concentration at which T2 is prolonged [4]: 1 × FTPC | significant T2 prolongation (p<0.05 and at least 15 % vs baseline) [4]: Significant T2 prolongations

C=C[C@H]1C[N@@]2CC[C@H]1C[C@@H]2[C@@H](O)c1ccnc2ccc(OC)cc12 [Quinidine]
reversibility of effects [2]: fully reversible after washout | time course of effects under continuous electrical stimulation and perfusion [2]: marked, time-dependent prolongation of T2 and a reduction in force, which was then followed by the development of a slower rhythm independent of pacing | effect on relaxation time T2 in a previous EHT study [1]: caused concentration-dependent prolongations of relaxation time T2 | action potential duration (APD90) ([3]; quinidine 100 µM, increased from 179 ms): 232 ms | T2-threshold concentration [4]: 100 µM | published IC50 values for hERG and Ito relative to threshold for T2 prolongation or irregularity [4]: at or below the threshold for T2 prolongation or irregularity | published IKs IC50 relative to threshold for group 1 or 2 effects [4]: at or below the threshold for group 1 or 2 effects | significant T2 prolongation (p<0.05 and at least 15 % vs baseline) [4]: Significant T2 prolongations

O=C1NCCN1CCN1CCC(c2cn(-c3ccc(F)cc3)c3ccc(Cl)cc23)CC1 [Sertindole]
LD50 (mouse): 420 mg∙kg^-1 (mouse, i. p.) | effect on contraction time T1 (group 3) [4]: prolongation of contraction time T1

COc1ccc(CCN(C)CCCC(C#N)(c2ccc(OC)c(OC)c2)C(C)C)cc1OC (centres unmarked) [Verapamil]
effect on force (group 3) [5]: decrease in force | effect on the T2-prolonging effect of 4AP [4]: no discernible effect

CNC[C@H](O)c1ccc(O)c(O)c1 [epinephrine]
effect on relaxation time T2 under electrical stimulation [2]: shortened T2 | effect on intracellular Ca^2+ transients (duration) [2]: shortened it | change of frequency of beating in the burst ([4]; epinephrine 50 nM): 15–20% | beating frequency in the bursts ([4]; epinephrine 50 nM, 4.4-4.6 Hz without drug): 5-5.6 Hz
